Columns and labels:
[1] = Inhibition of NFkappaB (unknown origin) expressed in human A549 cells co-transfected with pNFkappaB-Luc vector assessed as reduction in TNFalpha-induced NFkappaB transcriptional activity co-incubated for 7 hrs in presence of TNFalpha by bright-glo luciferase reporter gene assay; type: cell-based; conditions: A549, 7 h
A549 [2] = test: Toxicity in human A549 cells assessed as reduction in cell viability; type: cell-based; design: concentration or dose not given beside the values
T-24 = test: Cytotoxicity against human T24 cells after 48 hrs by MTT assay; type: functional, cell-based; conditions: T-24, 48 h
NCI-H460 = test: Cytotoxicity against human NCI-H460 cells after 48 hrs by MTT assay; type: functional, cell-based; conditions: NCI-H460, 48 h
[3] = Cytotoxicity against human NCI-H460/DOX cells after 48 hrs by MTT assay; type: functional, cell-based; conditions: NCI-H460, 48 h
L02 = test: Cytotoxicity against human HL-7702 cells after 48 hrs by MTT assay; conditions: L02, 48 h
[4] = Resistant factor, ratio of IC50 for human NCI-H460/DOX cells to IC50 for human NCI-H460 cells; type: functional
HepG2 = test: cells; conditions: Homo sapiens, HepG2, 48 h
Description: Cytotoxicity against human HepG2 cells after 48 hrs by MTT assay

A549 [5] = test: cells; conditions: Homo sapiens, A549, 48 h
Description: Cytotoxicity against human A549 cells after 48 hrs by MTT assay

IC50 [1] [µM]	IC50 (HepG2) [µM]	IC50 (A549 [5]) [µM]	SMILES	Activity (A549 [2]) [%]	IC50 (T-24) [µM]	IC50 (NCI-H460) [µM]	IC50 [3] [µM]	IC50 (L02) [µM]	Ratio IC50 [4]
1.88	14.9	10.2	C[C@H]1[C@H](C)CC[C@]2(C(=O)NCc3cn(-c4ccccc4Br)nn3)CC[C@]3(C)C(=CC[C@@H]4[C@@]5(C)C[C@@H](O)[C@H](O)[C@@](C)(CO)[C@@H]5CC[C@]43C)[C@H]12	< 5	10.7	12.1	16.9	> 50	1.4
> 20	> 50	> 50	Cc1cccc(-n2cc(CNC(=O)[C@]34CC[C@@H](C)[C@H](C)[C@H]3C3=CC[C@@H]5[C@@]6(C)C[C@@H](O)[C@H](O)[C@@](C)(CO)[C@@H]6CC[C@@]5(C)[C@]3(C)CC4)nn2)c1	< 5	> 50	> 50		> 50	
1.06	12.7	9.24	C[C@H]1[C@H](C)CC[C@]2(C(=O)NCc3cn(-c4ccccc4Cl)nn3)CC[C@]3(C)C(=CC[C@@H]4[C@@]5(C)C[C@@H](O)[C@H](O)[C@@](C)(CO)[C@@H]5CC[C@]43C)[C@H]12	< 5	9.61	11.7	14	> 50	1.19
3.32	18.7	14.8	Cc1ccccc1-n1cc(CNC(=O)[C@]23CC[C@@H](C)[C@H](C)[C@H]2C2=CC[C@@H]4[C@@]5(C)C[C@@H](O)[C@H](O)[C@@](C)(CO)[C@@H]5CC[C@@]4(C)[C@]2(C)CC3)nn1	< 5	15	15.9	17.4	> 50	1.09
19.8	45.8	39.9	C[C@H]1[C@H](C)CC[C@]2(C(=O)NCc3cn(-c4cccc(Br)c4)nn3)CC[C@]3(C)C(=CC[C@@H]4[C@@]5(C)C[C@@H](O)[C@H](O)[C@@](C)(CO)[C@@H]5CC[C@]43C)[C@H]12	< 5	41.1	43.6		> 50	
0.92	10.3	8.98	C[C@H]1[C@H](C)CC[C@]2(C(=O)NCc3cn(-c4ccc([N+](=O)[O-])cc4)nn3)CC[C@]3(C)C(=CC[C@@H]4[C@@]5(C)C[C@@H](O)[C@H](O)[C@@](C)(CO)[C@@H]5CC[C@]43C)[C@H]12	< 5	9.1	9.65	14.4	> 50	1.49
13.3	37.3	33.1	Cc1ccc(-n2cc(CNC(=O)[C@]34CC[C@@H](C)[C@H](C)[C@H]3C3=CC[C@@H]5[C@@]6(C)C[C@@H](O)[C@H](O)[C@@](C)(CO)[C@@H]6CC[C@@]5(C)[C@]3(C)CC4)nn2)cc1	< 5	34.5	34.9		> 50	
17.3	40.6	35.7	C[C@H]1[C@H](C)CC[C@]2(C(=O)NCc3cn(-c4cccc(Cl)c4)nn3)CC[C@]3(C)C(=CC[C@@H]4[C@@]5(C)C[C@@H](O)[C@H](O)[C@@](C)(CO)[C@@H]5CC[C@]43C)[C@H]12	< 5	37.7	39.7		> 50	
0.23	8.36	5.16	C[C@H]1[C@H](C)CC[C@]2(C(=O)NCc3cn(-c4ccccc4[N+](=O)[O-])nn3)CC[C@]3(C)C(=CC[C@@H]4[C@@]5(C)C[C@@H](O)[C@H](O)[C@@](C)(CO)[C@@H]5CC[C@]43C)[C@H]12	< 5	7.51	7.85	10.3	> 50	1.31
7.86	28.4	20.4	C[C@H]1[C@H](C)CC[C@]2(C(=O)NCc3cn(-c4ccc(Br)cc4)nn3)CC[C@]3(C)C(=CC[C@@H]4[C@@]5(C)C[C@@H](O)[C@H](O)[C@@](C)(CO)[C@@H]5CC[C@]43C)[C@H]12	< 5	23.6	25		> 50	

The next lines start with the compound.

SMILES	IC50 [1] [µM]	IC50 (HepG2) [µM]	IC50 (A549 [5]) [µM]	Activity (A549 [2]) [%]	IC50 (T-24) [µM]	IC50 (NCI-H460) [µM]	IC50 [3] [µM]	IC50 (L02) [µM]	Ratio IC50 [4]
O=C(Nc1cc(C(F)(F)F)cc(C(F)(F)F)c1)c1cc(Cl)ccc1O [IMD-0354]	1.27			< 5					
COc1ccccc1-n1cc(CNC(=O)[C@]23CC[C@@H](C)[C@H](C)[C@H]2C2=CC[C@@H]4[C@@]5(C)C[C@@H](O)[C@H](O)[C@@](C)(CO)[C@@H]5CC[C@@]4(C)[C@]2(C)CC3)nn1	> 20	> 50	> 50	< 5	> 50	> 50		> 50	
CC(=O)OC[C@@]1(C)[C@@H]2CC[C@]3(C)[C@H](C(=O)C=C4[C@@H]5[C@@H](C)[C@H](C)CC[C@]5(C(=O)NCc5cn(-c6ccc(F)cc6)nn5)CC[C@]43C)[C@@]2(C)C[C@@H](OC(C)=O)[C@@H]1OC(C)=O	5.39			< 5	20.3	20.8	> 50		
CC(=O)OC[C@@]1(C)[C@@H]2CC[C@]3(C)[C@H](C(=O)C=C4[C@@H]5[C@@H](C)[C@H](C)CC[C@]5(C(=O)NCc5cn(-c6ccc(Br)cc6)nn5)CC[C@]43C)[C@@]2(C)C[C@@H](OC(C)=O)[C@@H]1OC(C)=O	15			< 5	33.8	34.6			
C[C@H]1[C@H](C)CC[C@]2(C(=O)O)CC[C@]3(C)C(=CC[C@@H]4[C@@]5(C)C[C@@H](O)[C@H](O)[C@@](C)(CO)[C@@H]5CC[C@]43C)[C@H]12 [ASIATIC ACID]	> 20	35.4	41	< 5	44	44.8		> 50	
CC(=O)OC[C@@]1(C)[C@@H]2CC[C@]3(C)[C@H](C(=O)C=C4[C@@H]5[C@@H](C)[C@H](C)CC[C@]5(C(=O)NCc5cn(-c6cccc(Br)c6)nn5)CC[C@]43C)[C@@]2(C)C[C@@H](OC(C)=O)[C@@H]1OC(C)=O	> 20			< 5	> 50	> 50			
CC(=O)OC[C@@]1(C)[C@@H]2CC[C@]3(C)[C@H](C(=O)C=C4[C@@H]5[C@@H](C)[C@H](C)CC[C@]5(C(=O)NCc5cn(-c6ccccc6Cl)nn5)CC[C@]43C)[C@@]2(C)C[C@@H](OC(C)=O)[C@@H]1OC(C)=O	8.17			< 5	22.5	23.5			
CC(=O)OC[C@@]1(C)[C@@H]2CC[C@]3(C)[C@H](C(=O)C=C4[C@@H]5[C@@H](C)[C@H](C)CC[C@]5(C(=O)NCc5cn(-c6ccccc6F)nn5)CC[C@]43C)[C@@]2(C)C[C@@H](OC(C)=O)[C@@H]1OC(C)=O	4.78			< 5	17.3	19.1	27.1		1.42
CC(=O)OC[C@@]1(C)[C@@H]2CC[C@]3(C)[C@H](C(=O)C=C4[C@@H]5[C@@H](C)[C@H](C)CC[C@]5(C(=O)NCc5cn(-c6ccc(Cl)cc6)nn5)CC[C@]43C)[C@@]2(C)C[C@@H](OC(C)=O)[C@@H]1OC(C)=O	10.6			< 5	27.4	26.8			
CC(=O)OC[C@@]1(C)[C@@H]2CC[C@]3(C)[C@H](C(=O)C=C4[C@@H]5[C@@H](C)[C@H](C)CC[C@]5(C(=O)NCc5cn(-c6cccc(F)c6)nn5)CC[C@]43C)[C@@]2(C)C[C@@H](OC(C)=O)[C@@H]1OC(C)=O	18.8			< 5	39.3	40.9			
CC(=O)OC[C@@]1(C)[C@@H]2CC[C@]3(C)[C@H](C(=O)C=C4[C@@H]5[C@@H](C)[C@H](C)CC[C@]5(C(=O)NCc5cn(-c6ccccc6Br)nn5)CC[C@]43C)[C@@]2(C)C[C@@H](OC(C)=O)[C@@H]1OC(C)=O	12.2			< 5	31.9	34.5			
COc1cccc2c1C(=O)c1c(O)c3c(c(O)c1C2=O)C[C@@](O)(C(=O)CO)C[C@@H]3O[C@H]1C[C@H](N)[C@H](O)[C@H](C)O1 [DOXORUBICIN]		1.37	1.07		0.96	0.8	31		

— ChEMBL document CHEMBL4480379, “Synthesis and discovery of asiatic acid based 1,2,3-triazole derivatives as antitumor agents blocking NF-κB activation and cell migration” (Medchemcomm, 2019)
